This note sets out measurements from PubChem BioAssay (NCI).

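Interpolation was linear, between the two tested concentrations surrounding the appropriate level; five concentrations were tested over 48 hours in 96-well plates. The concentration for 50% growth inhibition is given as GI50. TGI: total growth inhibition.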

What all share (test): DTP human tumour cell line panel, 48 h
Assay [1] has as its system SW-620 colon.
Assay [2] has as its system COLO 205 colon.
Assay [3] has as its system HT29 colon.
The test system of assay [4] is LOX IMVI melanoma.
Assay [5] has as its system 786-0 renal.
Assay [6] has as its system SNB-19 CNS.
For assay [7], the system named is M14 melanoma.
The subject of assay [8] is RPMI-8226 leukemia.
The subject of assay [9] is U251 CNS.
The test system of assay [10] is NCI-H522 lung.

Usually TGI stands for the concentration giving total growth inhibition. Take `CCOP(=O)(OCC)C1CCCOC1=O` (stereo unspecified): the concentration for total growth inhibition (TGI) in assay [1], in [2], in assay [3], in assay [4], in assay [5] and in [6] was above 100 µM in each case. Further, the TGI in assay [7], in [8] and in assay [9] was above 100 µM throughout.

Take `CC1=C(/C=C/C(C)=C/C2CC(N(C)C)=CC(=O)O2)C(C)(C)CCC1` (stereo unspecified): the TGI worked out at 31.1 µM in assay [1]; 27.2 µM in assay [2]; 27.9 µM in [3]; 30.3 µM in [4]; 29.2 µM in assay [5]; 28.6 µM in assay [6]. In addition, the TGI turned out to be 28.3 µM in [7], 19.3 µM in [8] and 28.7 µM in [9].

The term GI50 denotes the concentration that inhibits growth by half. `COc1ccc(-c2nc(-c3ccc(C)cc3)cn3ccnc23)cc1`: the GI50 is 2.8 µM in assay [1]; 2.87 µM in [2]; 3.43 µM in assay [4]; 8.6 µM in assay [5]; 13.8 µM in assay [6]; 3.23 µM in [7]. For the same molecule, the GI50 is 2.89 µM in [8] and 3.42 µM in assay [9]. Also, the TGI in [1] is above 50 µM; in assay [2], above 50 µM; in [4] it was 13.8 µM; in assay [5], 45.6 µM; in assay [6], above 50 µM; in assay [7] it was above 50 µM. Besides, the concentration for total growth inhibition (TGI) in assay [8] and in [9] was above 50 µM in each case.

Turning to `CN(C)C(=N/O)/C(=N\O)N(C)C`, the TGI in assay [1], in [3], in [10], in assay [4], in [5] and in assay [6] was above 100 µM in each case. The TGI in assay [7], in [8] and in assay [9] was above 100 µM throughout.

As for `O=C(Nc1ccccc1)Nc1ccc2cc3ccc(NC(=O)Nc4ccccc4)cc3nc2c1`, the GI50 in assay [1] was 0.331 µM; in assay [2] it was 0.573 µM; in assay [3] it was 1.89 µM; in assay [10], 1.6 µM; in assay [4], 0.467 µM; in [5], 1.64 µM. For the same molecule, the values for the GI50 in [6], in [8] and in assay [9] were 1.58 µM, 5.42 µM and 0.978 µM, respectively. Besides, the TGI in [1] is 1.19 µM; in assay [2], 1.88 µM; in assay [3] it was 3.73 µM; in [10], 3.35 µM; in [4], 1.67 µM; in [5], 3.34 µM. Moreover, the total growth inhibition concentration (TGI) in [6] was 3.05 µM; in assay [8], above 100 µM; in assay [9] it was 2.28 µM.

`O=C(/C=C/c1ccccc1F)c1ccc(Cl)c(Cl)c1`: the TGI in assay [1] is above 66.3 µM; in assay [2], above 100 µM; in [3], above 75.2 µM; in [10] it was 61.2 µM; in assay [4], 23.6 µM; in assay [5] it was 31.4 µM. Also, the concentration for total growth inhibition (TGI) in [6] is above 100 µM; in assay [7] it was above 100 µM; in [8], above 75.6 µM.

Consider `CCc1ccc(CCC(=O)Nc2ncc(Cc3ccc(Cl)cc3)s2)o1`, for which the concentration for 50% growth inhibition (GI50) is 0.375 µM in assay [1]; 0.367 µM in assay [3]; 0.302 µM in assay [10]; 1.02 µM in assay [4]; 0.582 µM in assay [5]; 0.463 µM in [6]. The concentration for 50% growth inhibition (GI50) in assay [7] was 0.271 µM; in [8], 0.372 µM; in [9], 0.371 µM. For the same molecule, the TGI is above 100 µM in assay [1]; above 100 µM in assay [3]; 53.9 µM in assay [10]; above 100 µM in assay [4]; above 100 µM in [5]; above 100 µM in assay [6]. The TGI in assay [8] and in assay [9] was above 100 µM throughout.

With `COC(=O)C1=C(O)[C@H](C(=O)OC)C2(O)C(C(=O)OC)[C@H](c3ccc(OC(=O)C(C)c4ccc(CC(C)C)cc4)cc3)C[C@@H]1[C@@H]2C(=O)OC` (stereo partly specified), the GI50 is 18.1 µM in [1]; 12.3 µM in [2]; 14.3 µM in assay [10]; 6.06 µM in assay [4]; 20.4 µM in assay [5]; 40 µM in assay [6]. Moreover, the GI50 in assay [7] was 25.3 µM; in assay [8], 4.62 µM; in [9], 11.6 µM. For the same molecule, the total growth inhibition concentration (TGI) was above 50 µM in assay [1]; 41.3 µM in assay [2]; above 50 µM in assay [10]; 14.9 µM in assay [4]; above 50 µM in assay [5]; above 50 µM in assay [6]. Further, the TGI is above 50 µM in assay [7], above 50 µM in assay [8] and 30.2 µM in assay [9].

With `CN(C)CCNC(=O)c1cccc2cc3c(Cl)cccc3nc12`, the total growth inhibition concentration (TGI) in [1] is 6.17 µM; in assay [2] it was above 29.3 µM; in assay [3], 6.94 µM; in [10], above 100 µM; in assay [4], 2.33 µM; in assay [5], above 20.2 µM. In addition, the total growth inhibition concentration (TGI) stood at 7.32 µM in assay [6], 14.2 µM in assay [8] and 6.3 µM in [9].

For `Cc1cccc(C2SCc3nc4ccccc4n32)c1` (stereo unspecified), the concentration for total growth inhibition (TGI) in [1] is above 100 µM; in [3], above 100 µM; in assay [10], 60.7 µM; in assay [4] it was above 100 µM; in assay [5], 96.2 µM; in [7], above 100 µM. The concentration for total growth inhibition (TGI) in [8] was above 100 µM; in [9], 47.2 µM.

Take `CC(=O)c1c2c(cc3c1CC1(C3)Cc3cc4c(c(C(C)=O)c3C1)CCC4)CCC2`: the TGI in [1], in assay [2], in [3], in [10], in [4] and in assay [5] was above 100 µM each time. In addition, the TGI in assay [6], in assay [7] and in assay [9] was above 100 µM each time.
